Measured values as given in patent US5017618A, “Labile derivatives of ketone analogs of 3-substituted-1-alkylamino-2-propanols and their use as beta-adrenergic blockers” (priority 1989, dated 1991).

Assays:
iris-ciliary body = conditions: topical application to the eye; cited from earlier work
[1] = test system: ocular tissues of rabbits; assay: In vivo distribution-metabolism in ocular tissues of rabbits; conditions: for Tissue concentration: after topical propranolone oxime HCl 6a 1%
Procedure: (§1) Adult male New Zealand albino rabbits weighing 2.5-3.5 kg were used. Standard doses of 100 μl of 1% solution of the drugs in saline solution were administered topically to both eyes of each rabbit. After appropriate time intervals (30, 60 and 120 minutes), the animals were sacrificed. Aqueous humor was obtained by making a single puncture at the limbus using a 25 g×5/8" needle attached to 1 cm^3 syringe. Then the cornea and the iris-ciliary body were isolated. The tissues were pooled and homogenized using a Tekmar SDT tissuemizer in ice cold perchloric acid (0.05M) which contained 0.05% sodium metabisulfite as antioxidant. Samples were then rehomogenized in CH3 OH to prepare 10% homogenates, transferred to micro-filters and centrifuged for 20 minutes at 10000 r/minute to precipitate proteins. Aqueous humor was analyzed as such without any further dilution. Aliquots of 5-20 μl of the 10% tissue homogenate samples were analyzed by HPLC.

[2] = as above; conditions: rabbit, topical or ocular, 1 %, Tissue concentration
Procedure: as §1

rabbit iris-ciliary body = assay: Stereospecificity of enzymatic reduction in iris-ciliary body (chiral derivatization HPLC); assay type: in vivo; conditions: iris-ciliary body of rabbit treated with the oxime
Text: Finally, it was shown that the enzymatic reduction of the ketone is stereospecific. The extract residue from the iris-ciliary body of rabbit treated with 1-(isopropylamino)-3-(1-naphthyloxy)-2-propranolone oxime was reacted with the chiral reagent, 2,3,4,6-tetra-O-acetyl-β-D-glucoppyranosyl isocyanate, in acetonitrile and analyzed by the HPLC procedure of Sedman et al, J. Chromatogr. 278, 199-203, 1983 (Supelcosil LC-18 reversed-phase column of 7.5 cm×4.6 mm with 3 μm particles, mobile phase: 60% acetonitrile in 0.02M aqueous monobasic ammonium phosphate solution, 1 mL/min flow rate, UV detection at 254 nm).

[3] = In vivo distribution-metabolism in rat's blood
Procedure: A group of seven adult male Sprague-Dawley rats weighing 150-250 g was used. […] After 1, 3, 5, 20, 40 and 60 minutes, one mL of blood was withdrawn from the jugular vein and dropped immediately into a tared tube containing 1 mL of ice-cold acetonitrile. The tubes were vigorously shaken, centrifuged, decanted and analyzed for propranolol 1a and propranolone oxime 5a by HPLC. Quantitation was done by using a calibration curve obtained by addition of known amounts of propranolol oxime HCl 6a to blood obtained from a control rat pretreated with saline solution.
A high pressure liquid chromatography (HPLC) method was developed for the assay of the β-blockers and their ketoxime analogs in biological fluids. […] An ASI reverse phase chrompack C18 column, operated at ambient temperature, was used for all separation. The mobile phase used for separation of propranolol 1a and propranolone oxime 5a consisted of water (90 mL), 1-heptanesulfonic acid (1g), 0.1M acetic acid (10 mL), 0.1M triethanolamine (100 mL) and methanol (799 mL).

[4] = cited from earlier work

## CNCC(=O)c1ccc(O)c(O)c1 [adrenalone]
iris-ciliary body
  conversion to adrenaline in the eye: not adrenalone itself can be converted via a reduction-hydrolysis sequence to deliver adrenaline

## CC(C)NCC(COc1cccc2ccccc12)=NO [propranolone oxime 5a, 1-(Isopropylamino)-3-(1-naphthyloxy)-2-propanone oxime]
[1]; aqueous humor, 120 min.
  Tissue concentration: 0.00 ± 0.00 mcg/g tissue
[1]; cornea, 120 min.
  Tissue concentration: 0.00 ± 0.00 mcg/g tissue
[1]; iris-ciliary body, 60 min.
  Tissue concentration: 0.00 ± 0.00 mcg/g tissue
[1]; iris-ciliary body, 120 min.
  Tissue concentration: 0.00 ± 0.00 mcg/g tissue
[2]; aqueous humor
  concentration at 0.5 h: 820 ± 90 ng/g
  concentration at 1 h: 800 ± 60 ng/g
[2]; cornea
  concentration at 0.5 h: 23800 ± 4910 ng/g
  concentration at 1 h: 16400 ± 5800 ng/g
[2]; iris-ciliary body
  concentration at 0.5 h: 7790 ± 1100 ng/g
Rabbit iris-ciliary body
  stereospecificity: enantiomer of propranolol formed: The sole presence of the S-(-)-enantiomer of 1-(isopropylamino)-3-(1-naphthyloxy)-2-propanol (propranolol) was established
[3]; after i.v. oxime, disappeared 5 minutes after injection
  metabolite in blood: another more polar compound was detected
[3]; blood, iv, 6 mg/kg
  half-life: 7.64 ± 0.55 min
[3]; one hour after i.v. administration
  presence of oxime in blood: completely disappeared from the blood

## CC(C)(C)NC[C@H](O)COc1nsnc1N1CCOCC1 [timolol]
[1]; after ophthalmic 6b, low dose level used
  detection of parent β-adrenergic antagonist in eye compartments: could not be found in any of the eye compartments
[4]
  side effects secondary to topical ocular administration: a vast number of serious cardiovascular, respiratory, CNS and ocular side effects
